Where no end group is shown, it is not given here.
Columns and labels:
[1] = tested on: C. neoformans ATCC 32045 cell membrane; assay: Membrane potential, DiSC3(5) staining; type: cell-based, Cryptococcus neoformans; details: 1 × MIC, 8 × MIC and 16 × MIC; DiSC3(5) 0.5 μM, ex/em 622/670 nm
Procedure: DiSC3(5) is a fluorescent probe often used as a tracer dye to assess the cell membrane potential. […] C. neoformans ATCC 32045 was selected for SDB medium and cultured in a constant-temperature shaker at 35 °C to the logarithmic phase. The supernatant was removed by centrifugation at 3500 rpm for 5 min, washed three times with normal saline, and then the fungal solution was diluted with normal saline containing 100 mM potassium chloride to an OD600 of about 0.1. […] The above-mixed suspension was added to a fluorescence-specific 96-well plate, 190 μL per well, and the excitation/emission wavelength was set at 622/670 nm, and a microplate reader was used for measurement. The measurement was performed until the microplate reader value was stable and then continued for 20 min. The experimental group was added with 10 μL blap-6 to make the final concentrations 16 × MIC, 8 × MIC, and 1 × MIC, respectively. The positive control group was added with 10 μL of valinomycin to a final concentration of 10 μM. The negative control was added to 10 μL of normal saline. Continue to measure for 60 min. Three replicates were set up in the experiment.

S. aureus = assay: microbe, parasite or virus in culture; type: cell-based, Staphylococcus aureus (ATCC 6538)
Text: (§1) These standard strains of Escherichia coli (E. coli, ATCC 8739), Staphylococcus aureus (S. aureus, ATCC 6538), Pseudomonas aeruginosa (P. aeruginosa, ATCC 27853), Acinetobacter baumannii (A. baumannii, ATCC 1968), Candida albicans (ATCC 10231), and the clinical strain of Methicillin-resistant Staphylococcus aureus (MRSA, MRSA-Z) were obtained from Kunming Medical University. The standard strain of C. neoformans (ATCC 32045) was purchased from Shanghai Yingxin Laboratory Co., Ltd. (CAS NO. YXJ50058). Different strains of E. coli, S. aureus, MRSA, P. aeruginosa, and A. baumannii were cultured with shaking at 37 °C in Luria–Bertani (LB) medium. C. neoformans was cultured at 35 °C in Sabouraud Dextrose Agar (SDA) medium according to the manufacturer’s instructions.
(§2) According to Clinical and Laboratory Standards Institute (CLSI) protocols, the minimum inhibitory concentration (MIC) is the minimum drug concentration at which antibiotics inhibit the growth and reproduction of strains. The different strains were grown in their corresponding media at 35 °C or 37 °C until they entered the exponential growth phase. Fluconazole and amphotericin B were used as positive controls, and sterile 0.9% NaCl was used as a negative control. The peptides were diluted to various concentrations in sterile saline. According to 1 OD = 1 × 10^9 CFU/mL, the above bacterial solution was diluted to 2 × 10^5 CFU/mL with the corresponding medium. In advance, 100 μL of normal saline was added to a sterile 96-well plate, and 200 μL of the sample to be tested was added to the first well. The sample to be tested was subjected to double gradient dilution, and then 100 μL of bacterial solution with a concentration of 2 × 10^5 was added to each well. It was cultured at 35 °C or 37 °C for different times. The light absorption value of the bacterial solution at 600 nm was detected by a microplate reader (Epoch Etock, Biotek, Winooski, VT, USA), and the average concentration of the samples in the pores and adjacent pores that could not detect microbial growth was used as the MIC value.

[2] = tested on: C. neoformans ATCC 32045 pre-formed biofilm; assay: Biofilm eradication (crystal violet); type: cell-based, Cryptococcus neoformans; details: 1 × MIC, 48 h pre-formed biofilm, 48 h treatment, A600
Procedure: The single colony of C. neoformans ATCC 32045 was picked and cultured at 180 rpm and 37 °C. After washing with normal saline three times and being resuspended, the concentration of the fungal solution was adjusted to 1 × 10^6 CFU/mL and then added to a 96-well plate. Each well was incubated at 37 °C for 48 h. The fungal solution was discarded and washed three times with PBS for 1 min each time. The sample to be tested was diluted with normal saline to 0.5×, 1×, 2×, 4× and 8 × MIC, and 200 μL was added to the 96-well plate, respectively. Each concentration was set to three replicate wells, and the negative control group was added with the same volume of sterile normal saline. In the positive control group, 10 μM fluconazole and 10 μM amphotericin B were added and incubated at 37 °C for 48 h. After that, the supernatant was discarded and washed three times with sterile PBS for 1 min each time. And then, 99% methanol was added and fixed for 5 min. Methanol was removed and dried under the ultra-clean bench. After staining with 100 μL 0.1% crystal violet for 5 min, wash the plate with PBS, dry, and add 100 μL 95% ethanol. The absorbance at 600 nm was detected by a microplate reader.

MRSA = assay: microbe, parasite or virus in culture; type: cell-based
Text: as §1, §2

C. neoformans = assay: microbe, parasite or virus in culture; type: cell-based, Cryptococcus neoformans (ATCC 32045)
Text: as §1, §2

E. coli = assay: microbe, parasite or virus in culture; type: cell-based, Escherichia coli (ATCC 8739)
Text: as §1, §2

C. albicans = assay: microbe, parasite or virus in culture; type: cell-based, Candida albicans (ATCC 10231)
Text: as §1, §2

in vitro = in vitro ADME
Procedure: (§3) For investigating the impact of protease on blap-6, trypsin and chymotrypsin were chosen as the enzymes to be studied in the experiment. […] Then these samples (including blap-6 as a standard) were detected by high-performance liquid chromatography (HPLC, Waters, Milford, MA, USA) on a C18 column (4.6 mm × 250 mm, Waters, USA). Solvent A was ultrapure water, and solvent B was acetonitrile. The flow rate was 0.5 mL/min, and the detection wavelength was 280 nm. The column was balanced with 95% solvent A in 0-3 min and eluted with 95-40% solvent A in 3-10 min, 40-5% solvent A in 10-15 min, and 5-95% solvent A in 15-20 min. The degradation rate was calculated by the peak area of the HPLC.

trypsin = assay: in vitro; type: in vitro ADME
Procedure: as §3

For KRCRFRIYRWGFPRRRF [blap-6], the “change of membrane potential” value [1] was “deviations toward cell hyperpolarization in a dose-dependent manner”, the MIC (S. aureus) was 9.77 µM and the “eradication of pre-formed biofilm” value [2] was “ability to remove pre-formed C. neoformans biofilm”. The MIC (MRSA) was 4.89 µM, the MIC (C. neoformans) was 0.81 µM and the MIC (E. coli) was 9.77 µM. For the same sequence, the MIC (C. albicans) was 1.22 µM, the half-life at 2.44 mg/mL (in vitro; isolated enzyme chymotrypsin) was roughly 5 h and the metabolised at 1 h, 2.44 mg/mL (in vitro; isolated enzyme chymotrypsin) was 19%. For the same sequence, the metabolised at 24 h, 2.44 mg/mL (in vitro; isolated enzyme several chymotrypsin trypsin) was 90%, the half-life at 2.44 mg/mL (in vitro; isolated enzyme trypsin) was roughly 6 h and the degradation with trypsin (trypsin) was “began to degrade”.

Source: PMC11121495, “Blap-6, a Novel Antifungal Peptide from the Chinese Medicinal Beetle Blaps rhynchopetera against Cryptococcus neoformans” (International Journal of Molecular Sciences, 2024)
